According to US6552214B1, “Antimicrobial compound” (General Electric Company, priority 2000, dated 2003):

Assays:
[1] = Dioxin (2,8 DCDD) formation during GC-MS analysis; assay type: physicochemical; settings: injection of a 1000 ppm solution at 270° C. (518° F.)
Procedure: Dioxin formation was compared between modified and unmodified IRGASAN® bacteriostat samples. It was determined that 2,8 DCDD was produced during analysis of unmodified IRGASAN® bacteriostat by gas-chromatography-mass spectroscopy (GC-MS), presumably during injection of the material at 270° C. (518° F.).
The structure of IRGASAN® bacteriostat was modified by derivatization with BSTFA. A 0.1 ml volume of BSTFA (Supelco inc.) was added to 1.0 ml of a 1000 ppm IRGASAN® solution. Dioxin levels were undetectable upon analysis of the modified IRGASAN® solution by GC-MS.

[2] = tested on: E. coli; assay: Kirby-Bauer type assay, zone of inhibition; assay type: cell-based; settings: 24 h incubation
Procedure: (§1) Antimicrobial activity of the modified IRGASAN® bacteriostat was compared to that of the unmodified material in a Kirby-Bauer type assay. Three solutions of IRGASAN® bacteriostat and three solutions of modified IRGASAN® bacteriostat (3, 30 and 3000 ppm) were prepared and soaked into Whatman filter paper disks ˜6 mm in diameter and allowed to dry. The disks were placed onto the surface of nutrient agar plates that had been inoculated with 1×10^6 cells of either E. coli or Pseudomonas aeruginosa. The ability of the compounds to inhibit bacterial growth was determined by measuring the diameter of the zone of inhibition surrounding the filter paper disks after 24 h of incubation. The results (TABLE 1) indicate that there is no difference in activity between the modified and unmodified IRGASAN® bacteriostat compound.

[3] = tested on: Pseudomonas aeruginosa; assay: Kirby-Bauer type assay, zone of inhibition; assay type: cell-based; settings: P. aeruginosa, 24 h incubation
Procedure: as §1

[4] = background statement; cited from earlier work
[5] = 3 ppm solution soaked into filter paper disk
[6] = 30 ppm solution soaked into filter paper disk
[7] = 3000 ppm solution soaked into filter paper disk

| SMILES | production of DCDD (dioxin level) [1] | Zone of Inhibition [2, 5] [mm] | Zone of Inhibition [2, 6] [mm] | Zone of Inhibition [2, 7] [mm] | Zone of Inhibition [3, 5] [mm] | Zone of Inhibition [3, 6] [mm] | Zone of Inhibition [3, 7] [mm] | temperature above which the ether converts to chlorinated dioxin (DCDD) [4] | zone of inhibition at 3 ppm ([2]; Escherichia coli, 3 ppm solution soaked into filter paper disk) [mm] | zone of inhibition at 30 ppm ([2]; Escherichia coli, 30 ppm solution soaked into filter paper disk) [mm] | zone of inhibition at 3000 ppm ([2]; Escherichia coli, 3000 ppm solution soaked into filter paper disk) [mm] | zone of inhibition at 3 ppm ([3]; Pseudomonas aeruginosa, 3 ppm solution soaked into filter paper disk) [mm] | zone of inhibition at 30 ppm ([3]; Pseudomonas aeruginosa, 30 ppm solution soaked into filter paper disk) [mm] | zone of inhibition at 3000 ppm ([3]; Pseudomonas aeruginosa, 3000 ppm solution soaked into filter paper disk) [mm] |
| --- | --- | --- | --- | --- | --- | --- | --- | --- | --- | --- | --- | --- | --- | --- |
| Oc1cc(Cl)ccc1Oc1ccc(Cl)cc1Cl [Unmodified, 2,4,4′-dichloro-2′-hydroxydiphenyl ether] | approximately 46 ppm | 1 | 4 | 12 | 0 | 0 | 0 | above 200 °C |  |  |  |  |  |  |
| C[Si](C)(C)Oc1cc(Cl)ccc1Oc1ccc(Cl)cc1Cl [Modified, 2,4,4′-trichloro-2′-trimethylsilyloxy diphenyl ether] | undetectable |  |  |  |  |  |  |  | 1 | 4 | 12 | 0 | 0 | 0 |
